22 compounds from patent publication US7700624B2, “3-aminocyclopentanecrboxamides as modulators of chemokine receptors” (Incyte Corporation, priority 2005, dated 2010) can be followed below.

The structures appear in SMILES notation.

This assay addresses T1, CCR2 (Homo sapiens, UniProt P41597).
T1 construct: Peripheral Blood Mononuclear Cells (PBMCs) prepared from normal human whole blood via density gradient centrifugation; endogenous in cells; host or cells: human PBMCs from normal whole blood
T1 sequence (P41597 1-360 isoform P41597-2): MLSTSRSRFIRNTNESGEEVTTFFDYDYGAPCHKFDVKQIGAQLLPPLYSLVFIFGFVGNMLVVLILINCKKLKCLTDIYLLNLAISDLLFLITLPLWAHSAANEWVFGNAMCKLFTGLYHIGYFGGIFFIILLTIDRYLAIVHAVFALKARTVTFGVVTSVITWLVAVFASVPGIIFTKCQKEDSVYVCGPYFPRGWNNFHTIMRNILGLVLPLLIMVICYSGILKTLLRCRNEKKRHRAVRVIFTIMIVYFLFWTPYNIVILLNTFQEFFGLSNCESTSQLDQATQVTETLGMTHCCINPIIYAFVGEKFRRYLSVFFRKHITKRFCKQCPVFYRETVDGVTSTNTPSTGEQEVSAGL
The experiment in a line: CCR2 binding assay: 125I-labeled MCP-1 binding to human PBMCs. As to conditions: inhibition of specific binding of 0.1 to 0.2 nM 125I-labeled MCP-1 to human PBMCs, 30 min at room temperature. From the text: The CCR2 antagonist activity of compounds of the invention can be reported as the inhibitor concentration required for 50% inhibition (IC50 values) of specific binding in receptor binding assays using ^125I-labeled MCP-1, as ligand, and Peripheral Blood Mononuclear Cells (PBMCs) prepared from normal human whole blood via density gradient centrifugation. Specific binding is preferably defined as the total binding (e.g., total cpm on filters) minus the non-specific binding. Non-specific binding is defined as the amount of cpm still detected in the presence of excess unlabeled competitor (e.g., MCP-1).
Human PBMCs are used to test compounds of the invention in a binding assay. For example, 200,000 to 500,000 cells are incubated with 0.1 to 0.2 nM ^125I-labeled MCP-1, with or without unlabeled competitor (10 nM MCP-1) or various concentrations of compounds to be tested. ^125I-labeled MCP-1, are prepared by suitable methods or purchased from commercial vendors (Perkin Elmer, Boston Mass.). The binding reactions are performed in 50 to 250 μL of a binding buffer consisting of […] pH 7.2, and 0.1% BSA (bovine serum albumin), for 30 min at room temperature. The binding reactions are terminated by harvesting the membranes by rapid filtration through glass fiber filters (Perkin Elmer) which is presoaked in 0.3% polyethyleneimine or Phosphate Buffered Saline (PBS). The filters were rinsed with approximately 600 μL of binding buffer containing 0.5 M NaCl or PBS, then dried, and the amount of bound radioactivity is determined by counting on a Gamma Counter (Perkin Elmer).
Take `COc1ccc(CN[C@@H]2CC[C@@](C(=O)N3CCN(c4cc(C(F)(F)F)ccn4)CC3)(C(C)C)C2)cc1OC` [Example 25, (1R,3S)-N-(34-dimethoxybenzyl)-3-isopropyl-3-({4-[4-(trifluoromethyl)pyridin-2-yl]piperazin-1-yl}carbonyl)cyclopentanamine]: the concentration for half-maximal inhibition (IC50) (in general, the concentration that gives 50% inhibition) was found to be 500 nM.

Regarding `COc1ccc(CN[C@@H]2CC[C@@](C(=O)N3CCN(c4cc(C(F)(F)F)ccn4)CC3)(C(C)C)C2)cc1O` [Example 29, 5-({[(1R,3S)-3-isopropyl-3-({4-[4-(trifluoromethyl)pyridin-2-yl]piperazin-1-yl}carbonyl)cyclopentyl]amino}methyl)-2-methoxyphenol], the IC50 was determined as 736 nM.

`COc1cc(CN[C@@H]2CC[C@@](C(=O)N3CCN(c4cc(C(F)(F)F)ccn4)CC3)(C(C)C)C2)ccc1C` [Example 31, (1R,3S)-3-isopropyl-N-(3-methoxy-4-methylbenzyl)-3-({4-[4-(trifluoromethyl)pyridin-2-yl]piperazin-1-yl}carbonyl)cyclopentanamine] returned an IC50 of 334 nM.

For the compound `CC(C)[C@]1(C(=O)N2CCN(c3cc(C(F)(F)F)ccn3)CC2)CC[C@@H](NC2CCC(O)(c3ccc(-c4ncccn4)cn3)CC2)C1` (stereo partly shown) [Example 1, 4-{[(1R3S)-3-isopropyl-3-({4-[4-(trifluoromethyl)pyridin-2-yl]piperazin-1-yl}carbonyl)cyclopentyl]amino}-1-(5-pyrimidin-2-ylpyridin-2-yl)cyclohexanol], the IC50 is 19.8 nM. This IC50 lies about 17-fold lower than the previous one.

With `CC(C)NC(=O)CCC1CCCC1N[C@@H]1CC[C@@](C(=O)N2CCN(c3cc(C(F)(F)F)ccn3)CC2)(C(C)C)C1` (stereo partly drawn) [Example 13, N-isopropyl-3-(2-{[(1R,3S)-3-isopropyl-3-({4-[4-(trifluoromethyl)pyridin-2-yl]piperazin-1-yl}carbonyl)cyclopentyl]amino}cyclopentyl)propanamide], the IC50 was determined as 273 nM. Compared with the last compound, the IC50 is about 14-fold higher.

For the compound `CC(C)[C@]1(C(=O)N2CCN(c3cc(C(F)(F)F)ccn3)CC2)CC[C@@H](NC2CCCC2)C1` [Example 16, (1R,3S)-N-cyclopentyl-3-isopropyl-3-({4-[4-(trifluoromethyl)pyridin-2-yl]piperazin-1-yl}carbonyl)cyclopentanamine], the 50% inhibitory concentration (IC50) is 227 nM.

Take `CC(C)[C@]1(C(=O)N2CCN(c3cc(C(F)(F)F)ccn3)CC2)CC[C@@H](NC2CCCN(c3ncccn3)C2)C1` (mixture of isomers) [Example 11, N-[(1R,3S)-3-isopropyl-3-({4-[4-(trifluoromethyl)pyridin-2-yl]piperazin-1-yl}carbonyl)cyclopentyl]-1-pyrimidin-2-ylpiperidin-3-amine]: the IC50 was 420 nM.

In turn, `CC(C)[C@]1(C(=O)N2CCN(c3cc(C(F)(F)F)ccn3)CC2)CC[C@@H](NCc2ccc(O)cc2)C1` [Example 27, 4-({[(1R,3S)-3-isopropyl-3-({4-[4-(trifluoromethyl)pyridin-2-yl]piperazin-1-yl}carbonyl)cyclopentyl]amino}methyl)phenol] registered a concentration for half-maximal inhibition (IC50) of 470 nM.

The compound `CC(C)[C@]1(C(=O)N2CCN(c3cc(C(F)(F)F)ccn3)CC2)CC[C@@H](NC2Cc3ccccc3C2)C1` [Example 14, N-[(1R,3S)-3-isopropyl-3-({4-[4-(trifluoromethyl)pyridin-2-yl]piperazin-1-yl}carbonyl)cyclopentyl]indan-2-amine] returned an IC50 of 74.8 nM. Against the preceding compound, the IC50 is about 6.3-fold lower.

As to `CC(C)[C@]1(C(=O)N2CCN(c3cc(C(F)(F)F)ccn3)CC2)CC[C@@H](NC2CCc3cc(F)cc(F)c3C2)C1` (mixture of isomers) [Example 18, 6,8-difluoro-N-[(1R,3S)-3-isopropyl-3-({4-[4-(trifluoromethyl)pyridin-2-yl]piperazin-1-yl}carbonyl)cyclopentyl]-1234-tetrahydronaphthalen-2-amine], the IC50 amounted to 51.7 nM. This IC50 and that of the compound before are within 1.5-fold of each other.

For the compound `CC1COCC(C)C1N[C@@H]1CC[C@@](C(=O)N2CCN(c3cc(C(F)(F)F)ccn3)CC2)(C(C)C)C1` (stereo partly drawn) [Example 21, N-[(1R,3S)-3-isopropyl-3-({4-[4-(trifluoromethyl)pyridin-2-yl]piperazin-1-yl}carbonyl)cyclopentyl]-35-dimethyltetrahydro-2H-pyran-4-amine], the concentration for half-maximal inhibition (IC50) amounted to 10.1 nM.

`CC(C)[C@]1(C(=O)N2CCN(c3cc(C(F)(F)F)ccn3)CC2)CC[C@@H](NCc2ccc3c(c2)OCC(=O)N3)C1` [Example 30, 6-({[(1R,3S)-3-isopropyl-3-({4-[4-(trifluoromethyl)pyridin-2-yl]piperazin-1-yl}carbonyl)cyclopentyl]amino}methyl)-2H-14-benzoxazin-3(4H)-one]: the IC50 came to 364 nM.

As for `CC(C)[C@]1(C(=O)N2CCN(c3cc(C(F)(F)F)ccn3)CC2)CC[C@@H](NCc2cnc3c(c2)NC(=O)CO3)C1` [Example 9, 7-({[(1R,3S)-3-isopropyl-3-({4-[4-(trifluoromethyl)pyridin-2-yl]piperazin-1-yl}carbonyl)cyclopentyl]amino}methyl)-1H-pyrido[23-b][14]oxazin-2(3H)-one], the half-inhibitory concentration (IC50) turned out to be 338 nM.

On to `CC(C)[C@]1(C(=O)N2CCN(c3cc(C(F)(F)F)ccn3)CC2)CC[C@@H](N(C)C2CCOC2)C1` (stereo partly drawn) [Example 24, N-[(1R,3S)-3-isopropyl-3-({4-[4-(trifluoromethyl)pyridin-2-yl]piperazin-1-yl}carbonyl)cyclopentyl]—N-methyltetrahydrofuran-3-amine], for which the IC50 worked out at 181 nM.

For `CCCNC(=O)CCC1CCCC1N[C@@H]1CC[C@@](C(=O)N2CCN(c3cc(C(F)(F)F)ccn3)CC2)(C(C)C)C1` (stereo partly drawn) [Example 17, 3-(2-{[(1R,3S)-3-isopropyl-3-({4-[4-(trifluoromethyl)pyridin-2-yl]piperazin-1-yl}carbonyl)cyclopentyl]amino}cyclopentyl)-N-propylpropanamide], the IC50 amounted to 190 nM. This IC50 and that of the compound before are within 1.5-fold of each other.

Turning to `CC#CCN1CCC(N[C@@H]2CC[C@@](C(=O)N3CCN(c4cc(C(F)(F)F)ccn4)CC3)(C(C)C)C2)CCC1=O` (mixture of isomers) [Example 12, 1-but-2-yn-1-yl-5-{[(1R,3S)-3-isopropyl-3-({4-[4-(trifluoromethyl)pyridin-2-yl]piperazin-1-yl}carbonyl)cyclopentyl]amino}azepan-2-one], the half-maximal inhibitory concentration (IC50) is 660 nM. Against the preceding compound, the IC50 is about 3.5-fold higher.

`CC(CCn1cccn1)N[C@@H]1CC[C@@](C(=O)N2CCN(c3cc(C(F)(F)F)ccn3)CC2)(C(C)C)C1` (mixture of isomers) [Example 22, (1R,3S)-3-isopropyl-N-[1-methyl-3-(1H-pyrazol-1-yl)propyl]-3-({4-[4-(trifluoromethyl)pyridin-2-yl]piperazin-1-yl}carbonyl)cyclopentanamine] yielded an IC50 of 504 nM.

With `CC1OCCC1N[C@@H]1CC[C@@](C(=O)N2CCN(c3cc(C(F)(F)F)ccn3)CC2)(C(C)C)C1` (stereo partly drawn) [Example 20, 2,5-anhydro-1,3,4-trideoxy-3-{[(1R,3S)-3-isopropyl-3-({4-[4-(trifluoromethyl)pyridin-2-yl]piperazin-1-yl}carbonyl)cyclopentyl]amino}pentitol], the 50% inhibitory concentration (IC50) is 80.6 nM. Against the preceding compound, the IC50 is about 6.3-fold lower.

Take `CCn1cc(CN[C@@H]2CC[C@@](C(=O)N3CCN(c4cc(C(F)(F)F)ccn4)CC3)(C(C)C)C2)cn1` [Example 7, (1R,3S)-N-[(1-ethyl-1H-pyrazol-4-yl)methyl]-3-isopropyl-3-({4-[4-(trifluoromethyl)pyridin-2-yl]piperazin-1-yl}carbonyl)cyclopentanamine]: the IC50 is 617 nM. Against the preceding compound, the IC50 is about 7.7-fold higher.

Compound `CC(C)[C@]1(C(=O)N2CCN(c3cc(C(F)(F)F)ccn3)CC2)CC[C@@H](NCc2ccc(F)cc2)C1` [Example 28, (1R,3S)-N-(4-fluorobenzyl)-3-isopropyl-3-({4-[4-(trifluoromethyl)pyridin-2-yl]piperazin-1-yl}carbonyl)cyclopentanamine] displayed an IC50 of 389 nM.

The compound `CC(C)[C@]1(C(=O)N2CCN(c3cc(C(F)(F)F)ccn3)CC2)CC[C@@H](NC2CCc3ccccc3C2)C1` (mixture of isomers) [Example 19, N-[(1R,3S)-3-isopropyl-3-({4-[4-(trifluoromethyl)pyridin-2-yl]piperazin-1-yl}carbonyl)cyclopentyl]-1234-tetrahydronaphthalen-2-amine] displayed an IC50 of 138 nM.

`COc1ccc(CN[C@@H]2CC[C@@](C(=O)N3CCN(c4cc(C(F)(F)F)ccn4)CC3)(C(C)C)C2)c(OC)c1` [Example 10, (1R,3S)-N-(24-dimethoxybenzyl)-3-isopropyl-3-({4-[4-(trifluoromethyl)pyridin-2-yl]piperazin-1-yl}carbonyl)cyclopentanamine] displayed a concentration for half-maximal inhibition (IC50) of 519 nM.
